# Measurements taken from US9073916B2, “Prodrug forms of kinase inhibitors and their use in therapy” (AUCKLAND UNISERVICES LIMITED, priority 2009, dated 2015).
# Where two headings read alike, the source gives them in different places.
# Columns and labels:
# H1975 cells = experiment: Cellular growth inhibition (sulforhodamine B); format: cell-based, Human; conditions: Table 9; for IC50: Homo sapiens, NCI-H1975
# Method: (§1) Human A431, BT474, SKBR3, SKOV3, SW620, H1975 and HT29 carcinoma cells in log phase exponential growth in alpha minimal essential media (αMEM) containing 5% fetal bovine serum (FBS), were harvested by trypsinisation (1× trypsin/EDTA, Gibco Brl), counted, and seeded into 96 well plates (Nunc) at cell densities ranging from 800-1500 cells/well. Half of the cell samples were seeded into plates that were pre-equilibrated and held in an anoxic environment (90% N2, 5% H2, 5% CO2, 37° Q Anaerobic chamber, Coy Laboratory Products). […] At the end of this period the anoxic plates were recovered from the anaerobic camber and held under normoxia in a standard CO2 incubator (37° C.) for 20 hours. All plates were washed free of compound and cells were allowed to proliferate for a further 4 days in αMEM containing 5% FBS+antibiotics. Cells were fixed in trichloroacteic acid (30 min), washed and stained with sulforhodamine B (SRB, 60 min) prior to washing in acidified water. SRB was solubilised and absorption read at 450 nm to calculate cell densities. Inhibition of proliferation was calculated relative to untreated control wells.
# (§2) Human A431, H1975 and SKOV3 carcinoma cells in log phase exponential growth in alpha minimal essential media (αMEM) containing 5% fetal bovine serum (FBS), were harvested by trypsinisation (1× trypsin/EDTA, Gibco Brl), counted, and seeded into 96 well plates (Nunc) at cell densities ranging from 800-1500 cells/well. Half of the cell samples were seeded into plates that were pre-equilibrated and held in an anoxic environment (90% N2, 5% H2, 5% CO2, 37° C.; Anaerobic chamber, Coy Laboratory Products). […] At the end of this period the anoxic plates were recovered from the anaerobic camber and held under normoxia in a standard CO2 incubator (37° C.) for 20 hours. All plates were washed free of compound and cells were allowed to proliferate for a further 4 days in αMEM containing 5% FBS+antibiotics. Cells were fixed in trichloroacteic acid (30 min), washed and stained with sulforhodamine B (SRB, 60 min) prior to washing in acidified water. SRB was solubilised and absorption read at 450 nm to calculate cell densities. Inhibition of proliferation was calculated relative to untreated control wells.
# They were then washed free of drug and incubated for a further 4 days, before being stained for cell survival with sulforhodamine B.
# SKOV3 cells = experiment: Cellular growth inhibition (sulforhodamine B); format: cell-based, Human; conditions: Table 9; for IC50: Homo sapiens, SK-OV-3
# Method: as §2
# H1975 xenografts = experiment: In vivo efficacy in H1975 xenografts; design: species or system mice; conditions: H1975 xenografts, q3dx4 at respective MTD, IP
# Method: Specific pathogen-free homozygous female NIH-III nude mice (Charles River Laboratories, Wilmington, Mass.) were inoculated subcutaneously with a single cell suspension of H1975 cells (5×10^6 cells/100 μL; right flank). When H1975 tumour xenografts were established (typically 8-12 days) mice were randomized to treatment groups. All compounds were prepared in lactate buffer (pH4). Mice were dosed by intraperitoneal injection (0.01-0.03 ml/g) using the stated schedules and dose levels. For growth delay experiments mice were randomized to treatment and tumor volume [π(length×width^2)/6] and body weight were measured daily following treatment. […] Differences in RTV^4 were tested for statistical difference by Mann Whitney U test using SigmaStat v3.5.
# [1] = Chemical stability by HPLC; conditions: HPLC after 24 h at 37° C.
# A431 cells = experiment: Cellular growth inhibition (sulforhodamine B); conditions: for IC50: Homo sapiens
# Method: as §1, §2
# erbB1 = erbB1 (Homo sapiens, UniProt P00533); experiment: Inhibition of erbB1 autophosphorylation in EGF-stimulated intact A431 cells (Western blot)
# Sequence of erbB1 (P00533 25-1210): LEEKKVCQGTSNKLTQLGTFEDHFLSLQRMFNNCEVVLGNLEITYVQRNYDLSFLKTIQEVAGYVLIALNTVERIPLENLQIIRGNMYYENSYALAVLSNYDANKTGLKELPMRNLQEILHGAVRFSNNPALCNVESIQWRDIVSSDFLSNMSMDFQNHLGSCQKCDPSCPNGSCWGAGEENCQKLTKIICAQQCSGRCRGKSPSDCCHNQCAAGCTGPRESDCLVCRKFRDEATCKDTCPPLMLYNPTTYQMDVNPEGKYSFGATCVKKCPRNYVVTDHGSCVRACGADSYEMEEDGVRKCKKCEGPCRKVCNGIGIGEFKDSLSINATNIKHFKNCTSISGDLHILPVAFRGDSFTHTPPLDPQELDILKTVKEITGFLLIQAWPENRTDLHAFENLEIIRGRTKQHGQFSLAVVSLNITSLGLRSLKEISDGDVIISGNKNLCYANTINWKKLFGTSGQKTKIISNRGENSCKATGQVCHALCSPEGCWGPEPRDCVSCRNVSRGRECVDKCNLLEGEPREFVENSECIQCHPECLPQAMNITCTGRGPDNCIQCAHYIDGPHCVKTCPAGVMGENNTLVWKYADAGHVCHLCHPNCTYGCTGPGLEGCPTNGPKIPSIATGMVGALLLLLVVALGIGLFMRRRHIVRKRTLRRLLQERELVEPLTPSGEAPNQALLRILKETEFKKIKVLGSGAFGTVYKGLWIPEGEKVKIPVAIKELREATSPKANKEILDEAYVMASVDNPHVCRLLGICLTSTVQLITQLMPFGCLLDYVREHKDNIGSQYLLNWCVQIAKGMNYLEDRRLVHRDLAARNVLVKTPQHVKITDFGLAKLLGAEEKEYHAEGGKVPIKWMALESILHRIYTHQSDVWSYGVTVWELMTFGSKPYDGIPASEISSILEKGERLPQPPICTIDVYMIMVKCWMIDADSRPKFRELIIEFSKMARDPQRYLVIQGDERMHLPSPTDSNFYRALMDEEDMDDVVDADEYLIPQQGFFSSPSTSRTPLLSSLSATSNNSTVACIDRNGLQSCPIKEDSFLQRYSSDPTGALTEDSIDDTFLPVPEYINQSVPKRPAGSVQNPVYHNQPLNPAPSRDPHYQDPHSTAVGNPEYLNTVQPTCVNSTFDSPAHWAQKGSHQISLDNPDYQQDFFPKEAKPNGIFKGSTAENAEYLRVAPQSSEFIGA
smiles,measurement,setting,value
"C#Cc1cccc(Nc2ncnc3cnc(NC(=O)/C=C/C[N+](C)(C)Cc4c([N+](=O)[O-])ncn4C)cc23)c1 [Compound 58, (2E)-4-{[4-(3-ethynylanilino)pyrido[3,4-d]pyrimidin-6-yl]amino}-N,N-dimethyl-N-[(1-methyl-4-nitro-1H-imidazol-5-yl)methyl]-4-oxo-2-buten-1-ammonium bromide]",IC50,"H1975 cells; 24 hour exposure oxic, read-out: Cellular Growth Inhibition IC50 H1975 Oxic",98900 nM
same,IC50,"H1975 cells; first 4 hours anoxic, read-out: Cellular Growth Inhibition IC50 H1975 Anoxic",3810 nM
same,H1975 Deact.,H1975 cells,86 fold
same,H1975 HCR,H1975 cells,77.7 fold
same,IC50,"SKOV3 cells; 24 hour exposure oxic, read-out: Cellular Growth Inhibition IC50 SKOV3 Oxic",73100 nM
same,IC50,"SKOV3 cells; first 4 hours anoxic, read-out: Cellular Growth Inhibition IC50 SKOV3 Anoxic",2510 nM
same,SKOV3 Deact.,SKOV3 cells,133 fold
same,SKOV3 HCR,SKOV3 cells,38.5 fold
same,tumour growth inhibition (TGI),H1975 xenografts,171%
same,solubility,physchem; aqueous buffer,> 1280 µM
same,solubility,physchem; water,> 1280 µM
same,Stability PBS (percentage parent remaining),[1],78%
same,Stability Water (percentage parent remaining),[1],98%
same,Stability α-MEM + FCS (5%) (percentage parent remaining),[1],61%
same,IC50,"A431 cells; A-431, 4 h, read-out: Cellular Growth Inhibition IC50 A431 Anoxic",35 nM
same,IC50,"A431 cells; A-431, 24 h, read-out: Cellular Growth Inhibition IC50 A431 Oxic",2000 nM
same,A431 Deact.,A431 cells; Table 9,74 fold
same,A431 HCR,A431 cells; Table 9,77.9 fold
same,IC50,erbB1,513 nM
same,Deact. erbB1 (fold reduction in cellular inhibition relative to the parent kinase inhibitor),"erbB1; Table 8, A431 cells",64 fold
